The text below walks through data of US9908868B2, “Isoindolinone compounds as GPR119 modulators for the treatment of diabetes, obesity, dyslipidemia and related disorders” (SANOFI, priority 2014, dated 2018).

In this experiment the target is T1, human GPR119 (Homo sapiens, UniProt Q8TDV5).
T1 construct: expressed in transfected cells
T1 sequence (Q8TDV5 1-335): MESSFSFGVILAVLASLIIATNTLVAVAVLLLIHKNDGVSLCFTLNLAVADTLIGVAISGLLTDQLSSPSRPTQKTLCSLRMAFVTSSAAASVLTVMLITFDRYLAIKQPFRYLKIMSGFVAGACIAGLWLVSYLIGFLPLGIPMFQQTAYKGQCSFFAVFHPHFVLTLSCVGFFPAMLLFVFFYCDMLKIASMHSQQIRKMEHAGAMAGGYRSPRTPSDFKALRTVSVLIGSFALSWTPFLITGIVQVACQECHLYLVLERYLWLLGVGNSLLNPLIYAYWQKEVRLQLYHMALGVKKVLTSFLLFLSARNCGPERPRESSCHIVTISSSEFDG
Description: Functional cellular assay measuring GPR119-mediated cAMP release (HTRF) in HEK-293 cells stably expressing recombinant human GPR119. Format: cell-based. The following applies: cAMP response, cell line expressing human GPR119, 30 minutes at room temperature. The procedure, abridged:
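HEK-293 cells stably expressing recombinant human GPR119, suspended at 400000 cells/mL in HBSS/20 mM HEPES/0.1% BSA/2 mM IBMX, exposed to compound for 30 minutes at room temperature. cAMP detected by HTRF (665/620 nm ratio) after 1 h with reagents in lysis buffer. EC50 taken as concentration giving 50% of maximal activation.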
For orientation: Time-resolved FRET reads energy transfer from a long-lived donor to a nearby acceptor.

By EC50 is commonly meant the midpoint of the concentration-response curve. For the compound `O=C(CN1Cc2ccc(N3CC[C@@H](Oc4ccc(OCC(F)(F)F)nc4)C3=O)cc2C1=O)N1CCC(O)CC1` [Example 1-46, 2-[2-(4-hydroxy-1-piperidyl)-2-oxo-ethyl]-6-[(3R)-2-oxo-3-[[6-(2,2,2-trifluoroethoxy)-3-pyridyl]oxy]pyrrolidin-1-yl]isoindolin-1-one], the EC50 came to 184 nM.

On to `O=C(O)CN1Cc2ccc(N3CC[C@@H](Oc4ccc(OCC(F)(F)F)nc4)C3=O)cc2C1=O` [Example 3-05, 2-[1-oxo-6-[(3R)-2-oxo-3-[[6-(2,2,2-trifluoroethoxy)-3-pyridyl]oxy]pyrrolidin-1-yl]isoindolin-2-yl]acetic acid], for which the EC50 came to 544 nM. Regarding `CSCN1Cc2ccc(N3CC[C@@H](Oc4ccc(OCC5CC5)nc4)C3=O)cc2C1=O` [Example 1-51, 6-[(3R)-3-[[6-(cyclopropylmethoxy)-3-pyridyl]oxy]-2-oxo-pyrrolidin-1-yl]-2-(methylsulfanylmethyl)isoindolin-1-one], the half-maximal effective concentration (EC50) is 57 nM. `C[S+]([O-])CN1Cc2ccc(N3CC[C@@H](Oc4ccc(C(=O)C5CC5)cc4)C3=O)cc2C1=O` (stereo partly drawn) [Example 1-60, 6-[(3R)-3-[4-(cyclopropanecarbonyl)phenoxy]-2-oxo-pyrrolidin-1-yl]-2-(methylsulfinylmethyl)isoindolin-1-one]: the EC50 is 147 nM.

Turning to `CN(C)C(=O)CN1Cc2ccc(N3CC[C@@H](Oc4ccc(-n5cnnn5)cc4)C3=O)cc2C1=O` [Example 2-44, N,N-dimethyl-2-[1-oxo-6-[(3R)-2-oxo-3-[4-(tetrazol-1-yl)phenoxy]pyrrolidin-1-yl]isoindolin-2-yl]acetamide], the EC50 worked out at 14700 nM.

Regarding `CC(C)(C)N1Cc2c(F)cc(N3CC[C@@H](Oc4ccc(OCC5CC5)nc4)C3=O)cc2C1=O` [Example 1-33, 2-tert-butyl-6-[(3R)-3-[[6-(cyclopropylmethoxy)-3-pyridyl]oxy]-2-oxo-pyrrolidin-1-yl]-4-fluoro-isoindolin-1-one], the EC50 amounted to 8510 nM. With `CS(=O)(=O)CN1Cc2c(F)cc(N3CC[C@@H](Oc4ccc(OCC5CC5)nc4)C3=O)cc2C1=O` [Example 1-17, 6-[(3R)-3-[[6-(cyclopropylmethoxy)-3-pyridyl]oxy]-2-oxo-pyrrolidin-1-yl]-4-fluoro-2-(methylsulfonylmethyl)isoindolin-1-one] the figure was 30 nM; with `CN(C)C(=O)CN1Cc2c(F)cc(N3CC[C@@H](Oc4ccc(OCC5CC5)nc4)C3=O)cc2C1=O` [Example 4-25, 2-[6-[(3R)-3-[[6-(cyclopropylmethoxy)-3-pyridyl]oxy]-2-oxo-pyrrolidin-1-yl]-4-fluoro-1-oxo-isoindolin-2-yl]-N,N-dimethyl-acetamide], 80 nM; with `CN(CCO)C(=O)CN1Cc2ccc(N3CC[C@@H](Oc4ccc(OCC(F)(F)F)nc4)C3=O)cc2C1=O` [Example 1-45, N-(2-hydroxyethyl)-N-methyl-2-[1-oxo-6-[(3R)-2-oxo-3-[[6-(2,2,2-trifluoroethoxy)-3-pyridyl]oxy]pyrrolidin-1-yl]isoindolin-2-yl]acetamide], 179 nM. As for `O=C(CN1Cc2ccc(N3CC[C@@H](Oc4ccc(OCC5CC5)nc4)C3=O)cc2C1=O)N(CCO)CCO` [Example 4-33, 2-[6-[(3R)-3-[[6-(cyclopropylmethoxy)-3-pyridyl]oxy]-2-oxo-pyrrolidin-1-yl]-1-oxo-isoindolin-2-yl]-N,N-bis(2-hydroxyethyl)acetamide], the EC50 was 598 nM.

In the case of `CCOc1ccc(O[C@@H]2CCN(c3cc(F)c4c(c3)C(=O)N(CC(=O)N3CCC(O)CC3)C4)C2=O)cn1` [Example 4-19, 6-[(3R)-3-[(6-ethoxy-3-pyridyl)oxy]-2-oxo-pyrrolidin-1-yl]-4-fluoro-2-[2-(4-hydroxy-1-piperidyl)-2-oxo-ethyl]isoindolin-1-one], the EC50 came out at 297 nM. With `CN(C)C(=O)CN1Cc2c(F)cc(N3CC[C@@H](Oc4ccc(OC5CC5)nc4)C3=O)cc2C1=O` [Example 1-21, 2-[6-[(3R)-3-[[6-(cyclopropoxy)-3-pyridyl]oxy]-2-oxo-pyrrolidin-1-yl]-4-fluoro-1-oxo-isoindolin-2-yl]-N,N-dimethyl-acetamide] the figure was 346 nM; with `CSCN1Cc2c(F)cc(N3CC[C@@H](Oc4ccc(OCC5CC5)nc4)C3=O)cc2C1=O` [Example 1-20, 6-[(3R)-3-[[6-(cyclopropylmethoxy)-3-pyridyl]oxy]-2-oxo-pyrrolidin-1-yl]-4-fluoro-2-(methylsulfanylmethyl)isoindolin-1-one], 46 nM; with `CN(C)C(=O)CN1Cc2c(F)cc(N3CC[C@@H](Oc4ccc(OCC(C)(C)C)nc4)C3=O)cc2C1=O` [Example 6-02, 2-[6-[(3R)-3-[[6-(2,2-dimethylpropoxy)-3-pyridyl]oxy]-2-oxo-pyrrolidin-1-yl]-4-fluoro-1-oxo-isoindolin-2-yl]-N,N-dimethyl-acetamide], 126 nM.

As for `Cn1nnc(N2Cc3ccc(N4CC[C@@H](Oc5ccc(OCC6CC6)nc5)C4=O)cc3C2=O)n1` [Example 1-10, 6-[(3R)-3-[[6-(cyclopropylmethoxy)-3-pyridyl]oxy]-2-oxo-pyrrolidin-1-yl]-2-(2-methyltetrazol-5-yl)isoindolin-1-one], the EC50 came to 267 nM. Consider `CN(C)C(=O)CN1Cc2ccc(N3CC[C@@H](Oc4ccc(OC(F)(F)F)cc4)C3=O)cc2C1=O` [Example 2-01, N,N-dimethyl-2-[1-oxo-6-[(3R)-2-oxo-3-[4-(trifluoromethoxy)phenoxy]pyrrolidin-1-yl]isoindolin-2-yl]acetamide], for which the EC50 came out at 106 nM. Take `COC(=O)CN1Cc2c(F)cc(N3CC[C@@H](Oc4ccc(OCCC5CC5)nc4)C3=O)cc2C1=O` [Example 1-35, methyl 2-[6-[(3R)-3-[[6-(2-cyclopropylethoxy)-3-pyridyl]oxy]-2-oxo-pyrrolidin-1-yl]-4-fluoro-1-oxo-isoindolin-2-yl]acetate]: the half-maximal effective concentration (EC50) came to 19 nM. On to `CN(C)C(=O)CN1Cc2ccc(N3CC[C@@H](Oc4cnc(OCC5CC5)c(F)c4)C3=O)cc2C1=O` [Example 2-06, 2-[6-[(3R)-3-[[6-(cyclopropylmethoxy)-5-fluoro-3-pyridyl]oxy]-2-oxo-pyrrolidin-1-yl]-1-oxo-isoindolin-2-yl]-N,N-dimethyl-acetamide], for which the EC50 stood at 82 nM. On to `O=C(CN1Cc2c(F)cc(N3CC[C@@H](Oc4ccc(OCCC5CC5)nc4)C3=O)cc2C1=O)N1CCCC1` [Example 4-26, 6-[(3R)-3-[[6-(2-cyclopropylethoxy)-3-pyridyl]oxy]-2-oxo-pyrrolidin-1-yl]-4-fluoro-2-(2-oxo-2-pyrrolidin-1-yl-ethyl)isoindolin-1-one], for which the EC50 was 48 nM.

Regarding `CN(C)C(=O)CN1Cc2ccc(N3CC[C@@H](Oc4ccc(NC5=NC(=O)CS5)cc4)C3=O)cc2C1=O` [Example 2-33, N,N-dimethyl-2-[1-oxo-6-[(3R)-2-oxo-3-[4-[(4-oxothiazol-2-yl)amino]phenoxy]pyrrolidin-1-yl]isoindolin-2-yl]acetamide], the concentration giving a half-maximal response (EC50) amounted to 2210 nM. On to `CN(C)C(=O)CN1Cc2ccc(N3CC[C@H](Oc4ccc(OCC5CC5)nc4)C3=O)cc2C1=O` [Example 1-25, 2-[6-[(3S)-3-[[6-(cyclopropylmethoxy)-3-pyridyl]oxy]-2-oxo-pyrrolidin-1-yl]-1-oxo-isoindolin-2-yl]-N,N-dimethyl-acetamide], for which the EC50 turned out to be 441 nM. With `CN(C)C(=O)CN1Cc2ccc(N3CC[C@@H](Oc4ccc(CCCC5CC5)nc4)C3=O)cc2C1=O` [Example 2-02, 2-[6-[(3R)-3-[[6-(3-cyclopropylpropyl)-3-pyridyl]oxy]-2-oxo-pyrrolidin-1-yl]-1-oxo-isoindolin-2-yl]-N,N-dimethyl-acetamide], the EC50 was determined as 56 nM. `CC1(C(=O)c2ccc(O[C@@H]3CCN(c4ccc5c(c4)C(=O)N(CC(N)=O)C5)C3=O)cc2)CC1` [Example 2-55, 2-[6-[(3R)-3-[4-(1-methylcyclopropanecarbonyl)phenoxy]-2-oxo-pyrrolidin-1-yl]-1-oxo-isoindolin-2-yl]acetamide]: the EC50 came to 207 nM. With `CC1c2ccc(N3CC[C@@H](Oc4ccc(OCC5CC5)nc4)C3=O)cc2C(=O)N1CC(=O)O` (stereo partly drawn) [Example 1-14, 2-[5-[(3R)-3-[[6-(cyclopropylmethoxy)-3-pyridyl]oxy]-2-oxo-pyrrolidin-1-yl]-1-methyl-3-oxo-isoindolin-2-yl]acetic acid] the figure was 4440 nM; with `CN(C)C(=O)c1nc2ccc(N3CC[C@@H](Oc4ccc(OCC5CC5)nc4)C3=O)cc2c(=O)n1C` [Example 1-43, 6-[(3R)-3-[[6-(cyclopropylmethoxy)-3-pyridyl]oxy]-2-oxo-pyrrolidin-1-yl]-N,N,3-trimethyl-4-oxo-quinazoline-2-carboxamide], 449 nM.

In the case of `Cc1nc(-c2ccc(O[C@@H]3CCN(c4ccc5c(c4)C(=O)N(CC(=O)N(C)C)C5)C3=O)cc2)no1` [Example 2-32, N,N-dimethyl-2-[6-[(3R)-3-[4-(5-methyl-1,2,4-oxadiazol-3-yl)phenoxy]-2-oxo-pyrrolidin-1-yl]-1-oxo-isoindolin-2-yl]acetamide], the concentration for a half-maximal effect (EC50) was determined as 268 nM. As for `CCCCC(=O)c1ccc(O[C@@H]2CCN(c3ccc4c(c3)C(=O)N(CC(N)=O)C4)C2=O)cc1` [Example 2-54, 2-[1-oxo-6-[(3R)-2-oxo-3-(4-pentanoylphenoxy)pyrrolidin-1-yl]isoindolin-2-yl]acetamide], the EC50 turned out to be 38 nM. As to `CCOc1ccc(O[C@@H]2CCN(c3cc(F)c4c(c3)C(=O)N(CC(N)=O)C4)C2=O)cn1` [Example 4-16, 2-[6-[(3R)-3-[(6-ethoxy-3-pyridyl)oxy]-2-oxo-pyrrolidin-1-yl]-4-fluoro-1-oxo-isoindolin-2-yl]acetamide], the EC50 was determined as 271 nM.
